Laboratory results from patent US20240279202A1 (NURIX THERAPEUTICS, INC., priority 2021, published 2024).

Key:
[1] = Mouse PK analysis (blood/plasma concentration after oral administration); type: in vivo; settings: mouse, plasma, oral, 90 mg/kg, mice
Description: Compounds 1, 3, 7, and 42 were formulated and administered at 90 mg/kg to mice by oral gavage (PO). Blood was collected at defined time points (after 1, 2, and 6 hours) after compounds administration to determine PK parameters. Concentration increased through 6 hours. Six hours later mice were sacrificed and splenocytes were isolated and used to prepare protein lysates. Total protein levels were determined in the lysates using the BCA assay according to standard methods. Equal amounts of protein were then analyzed by Western blot to determine the level of ITK expression in each sample. ITK band intensities were measured using Alpha View software and the percent of ITK remaining in each test animal was determined relative to the mean of ITK levels in vehicle control samples.
Compounds 16, 17, and 18 were administered to mice orally. After 6 hours or 24 hours, splenocytes cells were harvested. ITK was evaluated by Western blotting. Plasma concentrations were determined by LC/MS/MS. Plasma samples were protein precipitated by addition of 100 μl of acetonitrile containing 50 ng/ml of internal standard. The resulting mixture was vortexed and centrifuged at 4000 RPM for 5 minutes. An aliquot of the resultant supernatant (75 μl) was added to 75 μl of 0.1% formic acid in water to constitute the final sample for injection. Samples were injected on a Shimadzu Exion LC Binary Gradient AD Pump HLPC system connected to a Sciex QTRAP 6500+mass spectrometer. Five μl of sample was injected onto a Waters Acquity UPLC BEH C18 column 130A (2.1×30 mm, […]) at 40° C. utilizing a flow rate of 700 μl/minute. Mobile Phase A was 0.1% formic acid in water and mobile phase B was 0.1% formic acid in acetonitrile. A linear gradient of 15-95% B over 1.0 minute was used. The mass spectrometer was operated in positive ion electrospray mode with multiple reaction monitoring for maximum sensitivity. Sciex Analyst software (version 1.6.3) was used for LC/MS/MS instrument control and acquisition. Compound concentration was determined against a standard curve of internal standard versus compound peak area ratio. Noncompartmental PK parameters were determined using […] software (version 8.2.0.4383) from Certara. Plasma concentrations from the LC/MS/MS analyses, dose, route of administration, and desired units were utilized for PK parameter calculations. […] FIG. 4C provides the concentration over time of compound 17 following in vivo oral administration in the 6 hour and 24 hour assays.
Cmax, Tmax and AUClast were all calculated using a WinNonLin Phoenix 64 v 8.2.0.4383. Using non-compartmental analysis, Tmax, Cmax and AUClast were determined as follows: • Tmax—Time of maximum observed concentration. • Cmax—Maximum observed concentration, occurring at time Tmax, as defined above. • AUClast—Area under the curve from the time of dosing to the time of the last measurable (positive) concentration (Tlast).

ITK = target: T1, ITK (Homo sapiens, UniProt Q08881); assay: ITK degradation MSD (Meso Scale Discovery) assay; type: cell-based; design: either human Jurkat (Clone E6-1 ATCC TIB-152) or Motl4 (ATCC CRL-1552), were plated; endogenous in cells; host or cells: Jurkat clone E6-1 (ATCC TIB-152) or Molt4 (ATCC CRL-1552); settings: Jurkat or Molt4 cells, 4 or 6 hrs
T1 sequence (Q08881 1-620): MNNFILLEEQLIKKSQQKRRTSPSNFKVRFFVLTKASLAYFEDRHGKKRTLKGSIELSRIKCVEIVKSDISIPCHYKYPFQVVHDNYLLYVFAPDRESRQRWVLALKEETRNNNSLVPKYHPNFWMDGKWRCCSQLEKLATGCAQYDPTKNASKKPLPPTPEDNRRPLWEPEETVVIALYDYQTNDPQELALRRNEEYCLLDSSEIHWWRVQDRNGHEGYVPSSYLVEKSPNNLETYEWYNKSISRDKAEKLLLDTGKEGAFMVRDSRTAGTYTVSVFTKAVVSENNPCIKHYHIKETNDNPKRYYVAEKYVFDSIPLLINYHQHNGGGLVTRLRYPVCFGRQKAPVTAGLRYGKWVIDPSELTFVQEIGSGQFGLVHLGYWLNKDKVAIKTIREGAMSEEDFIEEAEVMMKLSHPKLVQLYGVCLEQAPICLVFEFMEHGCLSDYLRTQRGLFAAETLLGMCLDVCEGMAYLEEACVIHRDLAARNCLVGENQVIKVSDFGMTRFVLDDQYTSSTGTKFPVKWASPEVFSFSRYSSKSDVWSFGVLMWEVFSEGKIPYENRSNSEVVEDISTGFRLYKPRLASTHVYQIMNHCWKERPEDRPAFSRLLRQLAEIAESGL
Description: ITK Degradation MSD (Meso Scale Discovery) Assay Compound dilution series (7-point, 5 fold dilutions in DMSO, rows B-H with replicate in Column 1⁄2, 3⁄4, 5⁄6, 7,8, at 2000× the final required concentrations were prepared in 96 well plates (Falcon, cat. no. 353077). Row A, Column 1-8 were control DMSO. The 2000× solutions ranged from 2 mM to 128 nM (final assay concentration range 1 μM to […]). The 2000× solutions were added to cells in […], for a final DMSO concentration of 0.5% and final assay compound concentration of 1×. For the cells, either human Jurkat (Clone E6-1 ATCC TIB-152) or Motl4 (ATCC CRL-1552), were plated at 1×10^6 cells/mL, 100 μL/well ([…]) in complete RPMI (10% FBS, 1% L-glutamine). Cells were incubated for 4 or 6 hrs at 32° C./6% CO2. Following incubation, plates were centrifuged at 1200 rpm for 5 min. supernatant was removed and 50 μL of cell lysis buffer ((MSD Tris lysis buffer (R60TX), Complete Mini EDTA-free protease inhibitor (Sigma 11836170001), Protease Inhibitor Cocktail (Sigma, P2714), Phosphatase Inhibitor Cocktail 2 and 3 (Sigma, P5726 and P0044), and Benzonase (Sigma, E1014)) was added to each well. Plates were sealed and shook at 4° C. for 30 min. Plates were centrifuged and 45 μL was removed for plate assays. Assay plate preparation: Meso Scale Discovery (MSD) multi-array sm spot 96 well plates (Goat anti-Rabbit L^45-RA), were blocked with 3% BSA blocking buffer (3% Bovine Serum Albumin (Sigma A3059)+TBS 0.2% Tween-20) for 1 hr with gentle rocking at room temperature. Plates were then washed with 200 μL of 1× TBST (TBS 0.2% Tween-20) 3 times. After last wash, liquid was removed and 50 μL per well of capture antibody (abcam ITK Y402-ab32507) was added to plates at a 1:1000 dilution in blocking buffer (above). Plates were sealed and rocked at room temperature for 2 hrs. Plates were then washed 3 times with 200 μL of 1× TBST. After last wash, liquid was removed and 45 μL of cell lysate (from above) was added to each plate. Plates were sealed and rocked overnight at 4° C. Next day, cell lysates were removed, and assay plates were washed 3 times with 200 μL of 1× TBST. After last wash, liquid was removed and detection antibody (CST ITK (2F12) #2380) was added at 50 μL per well at a dilution of 1:1000 in blocking buffer. Plates were sealed and rocked at room temperature for 2 hrs. Plates were washed 3 times with 200 uL of 1× TBST. After last wash, liquid was removed, MSD Mouse anti-Rabbit sulfo tag (R32AC-1) was diluted to 1:1000 in blocking buffer. 50 μL was added to each well on the plate. Plates were sealed and incubated at room temperature for 1 hr. Plates were washed 3 times with 200 μL of 1× TBST. After last wash, liquid was removed and 150 μL of 1× MSD Read Buffer T ([…]) was then added to each well for ECL read out. For reading ECL signal, plate is read on a Meso Scale Discovery (MSD) MESO Sector S 600 plate reader. Percent ITK in then calculated as described below. Percent ITK remaining per sample was calculated as follows: [formula] Using Graphpad Prism, % ITK remaining values were plotted as a function of compound concentration. To determine DC50 and Dmax values, resulting curves were fit to the Prism curve-fitting equation “log(inhibitor) vs response-Variable slope (four parameters)” (reported best fit value IC50 used as DC50).

Structure (SMILES): C[C@@]12Cc3[nH]nc(C(=O)Nc4cnn([C@H](c5ccccc5)C5CN(C(=O)C6CCN(c7ccc8c(c7)C(=O)N(C7CCC(=O)NC7=O)C8=O)CC6)C5)c4)c3C[C@@H]1C2(F)F (stereo partly drawn) [Compound 38, (4aS,5aR)-N-(1-((1S)-(1-(1-(2-(2,6-dioxopiperidin-3-yl)-1,3-dioxoisoindolin-5-yl)piperidine-4-carbonyl)azetidin-3-yl)(phenyl)methyl)-1H-pyrazol-4-yl)-5,5-difluoro-5a-methyl-1,4,4a,5,5a,6-hexahydrocyclopropafindazole-3-carboxamide]
- concentration at 2 h ([1]; 2 h, read-out: Cal. Conc. Total (μM) 2 h): 0.0046 µM
- concentration at 6 h ([1]; 6 h, read-out: Cal. Conc. Total (μM) 6 h): 0.0024 µM
- DC50 (ITK): 0.2 nM
- Dmax (ITK): 84%

Structure (SMILES): C[C@@]12Cc3[nH]nc(C(=O)Nc4cnn([C@H](c5ccccc5)C5CN(C(=O)CCOCCOCCOCCOCCOCCOCCOCCOCCNc6cccc7c6C(=O)N(C6CCC(=O)NC6=O)C7=O)C5)c4)c3C[C@@H]1C2(F)F (stereo partly drawn) [Compound 30, (4aS,5aR)-N-(1-((1S)-(1-(1-((2-(2,6-dioxopiperidin-3-yl)-1,3-dioxoisoindolin-4-yl)amino)-3,6,9,12,15,18,21,24-octaoxaheptacosan-27-oyl)azetidin-3-yl)(phenyl)methyl)-1H-pyrazol-4-yl)-5,5-difluoro-5a-methyl-1,4,4a,5,5a,6-hexahydrocyclopropa[f]indazole-3-carboxamide]
- DC50 (ITK): 20 nM
- Dmax (ITK): 92%

Structure (SMILES): C[C@@]12Cc3[nH]nc(C(=O)Nc4cnn([C@H](c5ccccc5)C5CN(CC6CN(c7ccc8c(c7)C(=O)N(C7CCC(=O)NC7=O)C8=O)CCO6)C5)c4)c3C[C@@H]1C2(F)F (stereo partly drawn) [Compound 41, (4aS,5aR)-N-(1-((1S)-(1-((4-(2-(2,6-dioxopiperidin-3-yl)-1,3-dioxoisoindolin-5-yl)morpholin-2-yl)methyl)azetidin-3-yl)(phenyl)methyl)-1H-pyrazol-4-yl)-5,5-difluoro-5a-methyl-1,4,4a,5,5a,6-hexahydrocyclopropa[f]indazole-3-carboxamide]
- DC50 (ITK): 0.57 nM
- Dmax (ITK): 86%

Structure (SMILES): C[C@@]12Cc3[nH]nc(C(=O)Nc4cnn([C@H](c5ccccc5)C5CN(CCOCCOCCOCCOCCOCCNc6cccc7c6C(=O)N(C6CCC(=O)NC6=O)C7=O)C5)c4)c3C[C@@H]1C2(F)F (stereo partly drawn) [Compound 31, (4aS,5aR)-N-(1-((1S)-(1-(17-((2-(2,6-dioxopiperidin-3-yl)-1,3-dioxoisoindolin-4-yl)amino)-3,6,9,12,15-pentaoxaheptadecyl)azetidin-3-yl)(phenyl)methyl)-1H-pyrazol-4-yl)-5,5-difluoro-5a-methyl-1,4,4a,5,5a,6-hexahydrocyclopropa[f]indazole-3-carboxamide]
- DC50 (ITK): 44 nM
- Dmax (ITK): 95%

Structure (SMILES): C[C@@]12Cc3[nH]nc(C(=O)Nc4cnn([C@H](c5ccccc5)C5CN(C(=O)CCOCCNc6cccc7c6C(=O)N(C6CCC(=O)NC6=O)C7=O)C5)c4)c3C[C@@H]1C2(F)F (stereo partly drawn) [Compound 27, (4aS,5aR)-N-(1-((1S)-(1-(3-(2-((2-(2,6-dioxopiperidin-3-yl)-1,3-dioxoisoindolin-4-yl)amino)ethoxy)propanoyl)azetidin-3-yl)(phenyl)methyl)-1H-pyrazol-4-yl)-5,5-difluoro-5a-methyl-1,4,4a,5,5a,6-hexahydrocyclopropafindazole-3-carboxamide]
- DC50 (ITK): 3.8 nM
- Dmax (ITK): 92%

Structure (SMILES): C[C@@]12Cc3[nH]nc(C(=O)Nc4cnn([C@H](c5ccccc5)C5CN(C(=O)CCOCCOCCOCCOCCOCCNc6cccc7c6C(=O)N(C6CCC(=O)NC6=O)C7=O)C5)c4)c3C[C@@H]1C2(F)F (stereo partly drawn) [Compound 29, (4aS,5aR)-N-(1-((1S)-(1-(1-((2-(2,6-dioxopiperidin-3-yl)-1,3-dioxoisoindolin-4-yl)amino)-3,6,9,12,15-pentaoxaoctadecan-18-oyl)azetidin-3-yl)(phenyl)methyl)-1H-pyrazol-4-yl)-5,5-difluoro-5a-methyl-1,4,4a,5,5a,6-hexahydrocyclopropa[f]indazole-3-carboxamide]
- DC50 (ITK): 21 nM
- Dmax (ITK): 95%

Structure (SMILES): C[C@@]12Cc3[nH]nc(C(=O)Nc4cnn([C@H](c5ccccc5)C5CN(C(=O)C6CN(C7CCN(c8ccc(NC9CCC(=O)NC9=O)cn8)CC7)C6)C5)c4)c3C[C@@H]1C2(F)F (stereo partly drawn) [Compound 36, (4aS,5aR)-N-(1-((1S)-(1-(1-(1-(5-((2,6-dioxopiperidin-3-yl)amino)pyridin-2-yl)piperidin-4-yl)azetidine-3-carbonyl)azetidin-3-yl)(phenyl)methyl)-1H-pyrazol-4-yl)-5,5-difluoro-5a-methyl-1,4,4a,5,5a,6-hexahydrocyclopropa[f]indazole-3-carboxamide]
- DC50 (ITK): 1.6 nM
- Dmax (ITK): 72%
